Values of other authors in patent US20060035883A1, “Novel serotonin receptor ligands and their uses thereof” (priority 2004, published 2006).

What was measured:
Details in all cases: read-out: Receptor affinities (Ki)
D2 = D2 (Homo sapiens, UniProt P14416)
α1 = target: α1
5-HT2C = target: T1, 5-HT2C (Homo sapiens, UniProt P28335)
T1 sequence (P28335 33-458): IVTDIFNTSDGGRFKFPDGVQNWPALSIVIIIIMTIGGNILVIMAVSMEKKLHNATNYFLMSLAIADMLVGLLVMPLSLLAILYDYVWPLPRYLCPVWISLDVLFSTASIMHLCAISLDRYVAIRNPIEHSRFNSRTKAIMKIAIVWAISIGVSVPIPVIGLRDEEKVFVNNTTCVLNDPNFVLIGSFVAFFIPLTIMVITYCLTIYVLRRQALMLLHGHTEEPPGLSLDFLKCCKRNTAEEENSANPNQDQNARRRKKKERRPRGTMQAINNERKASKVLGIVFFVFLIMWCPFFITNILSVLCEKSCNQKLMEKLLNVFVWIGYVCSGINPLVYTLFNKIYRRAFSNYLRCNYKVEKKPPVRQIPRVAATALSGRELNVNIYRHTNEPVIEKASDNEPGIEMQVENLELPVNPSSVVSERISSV

5-HT3 = target: T2, 5-HT3 (Homo sapiens, UniProt P46098)
T2 sequence (P46098 24-478): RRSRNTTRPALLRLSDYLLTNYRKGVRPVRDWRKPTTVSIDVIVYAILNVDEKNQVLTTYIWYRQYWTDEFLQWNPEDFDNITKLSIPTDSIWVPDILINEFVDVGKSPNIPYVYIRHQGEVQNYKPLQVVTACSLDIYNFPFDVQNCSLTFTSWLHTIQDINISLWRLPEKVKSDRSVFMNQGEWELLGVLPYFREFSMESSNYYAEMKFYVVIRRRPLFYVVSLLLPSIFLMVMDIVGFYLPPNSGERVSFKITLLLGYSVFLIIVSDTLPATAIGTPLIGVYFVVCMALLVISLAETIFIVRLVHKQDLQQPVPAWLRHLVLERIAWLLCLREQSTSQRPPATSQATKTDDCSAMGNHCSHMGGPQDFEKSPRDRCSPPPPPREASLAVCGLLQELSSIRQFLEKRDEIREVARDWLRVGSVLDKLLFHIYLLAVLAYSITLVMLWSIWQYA

α2 = target: α2

Sequence of D2 (P14416 whole entry): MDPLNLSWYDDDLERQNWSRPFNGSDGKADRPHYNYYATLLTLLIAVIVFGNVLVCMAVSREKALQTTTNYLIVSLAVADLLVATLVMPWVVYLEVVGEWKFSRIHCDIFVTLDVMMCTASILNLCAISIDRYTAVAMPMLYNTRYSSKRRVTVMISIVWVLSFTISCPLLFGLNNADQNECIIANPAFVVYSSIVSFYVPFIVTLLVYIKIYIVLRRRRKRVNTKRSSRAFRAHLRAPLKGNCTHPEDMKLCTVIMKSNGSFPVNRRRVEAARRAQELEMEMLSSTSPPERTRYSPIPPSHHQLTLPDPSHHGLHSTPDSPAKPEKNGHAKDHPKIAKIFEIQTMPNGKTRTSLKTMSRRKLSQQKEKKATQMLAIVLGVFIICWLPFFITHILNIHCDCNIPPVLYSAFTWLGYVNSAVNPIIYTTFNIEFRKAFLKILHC

| Structure (SMILES) | Ki (D2) [nM] | Ki (α1) [nM] | Ki (5-HT2C) [nM] | Ki (5-HT3) [nM] | Ki (α2) [nM] |
| --- | --- | --- | --- | --- | --- |
| CN1CCN2c3ncccc3Cc3ccccc3C2C1 (stereo not drawn) [Mirtazepine, mirtazepine] | > 1000 | 500 | 12 | 8 | 65 |
| CN1CCN2c3ccccc3Cc3ccccc3C2C1 (stereo not drawn) [Mianserin] | > 1000 | – | – | – | – |
